Measured values taken from US12612407B2, “Imidazo[2,1-f][1,2,4]triazin-4-amine derivatives as TLR7 agonist” (BEIGENE, LTD., priority 2020, dated 2026).

The compounds below were run against T1, human TLR 8 protein (Homo sapiens, UniProt Q9NR97) (assay: TLR8 Stimulation determined using HEK-Blue Detection). Details: HEK-Blue hTLR8 cells, 16 hr, percentages of maximum activation with Resiquimod or Motolimod, Table 3.
T1 construct: expressed in transfected cells; host or cells: HEK293 (HEK-Blue hTLR8)
T1 sequence (Q9NR97 27-1041): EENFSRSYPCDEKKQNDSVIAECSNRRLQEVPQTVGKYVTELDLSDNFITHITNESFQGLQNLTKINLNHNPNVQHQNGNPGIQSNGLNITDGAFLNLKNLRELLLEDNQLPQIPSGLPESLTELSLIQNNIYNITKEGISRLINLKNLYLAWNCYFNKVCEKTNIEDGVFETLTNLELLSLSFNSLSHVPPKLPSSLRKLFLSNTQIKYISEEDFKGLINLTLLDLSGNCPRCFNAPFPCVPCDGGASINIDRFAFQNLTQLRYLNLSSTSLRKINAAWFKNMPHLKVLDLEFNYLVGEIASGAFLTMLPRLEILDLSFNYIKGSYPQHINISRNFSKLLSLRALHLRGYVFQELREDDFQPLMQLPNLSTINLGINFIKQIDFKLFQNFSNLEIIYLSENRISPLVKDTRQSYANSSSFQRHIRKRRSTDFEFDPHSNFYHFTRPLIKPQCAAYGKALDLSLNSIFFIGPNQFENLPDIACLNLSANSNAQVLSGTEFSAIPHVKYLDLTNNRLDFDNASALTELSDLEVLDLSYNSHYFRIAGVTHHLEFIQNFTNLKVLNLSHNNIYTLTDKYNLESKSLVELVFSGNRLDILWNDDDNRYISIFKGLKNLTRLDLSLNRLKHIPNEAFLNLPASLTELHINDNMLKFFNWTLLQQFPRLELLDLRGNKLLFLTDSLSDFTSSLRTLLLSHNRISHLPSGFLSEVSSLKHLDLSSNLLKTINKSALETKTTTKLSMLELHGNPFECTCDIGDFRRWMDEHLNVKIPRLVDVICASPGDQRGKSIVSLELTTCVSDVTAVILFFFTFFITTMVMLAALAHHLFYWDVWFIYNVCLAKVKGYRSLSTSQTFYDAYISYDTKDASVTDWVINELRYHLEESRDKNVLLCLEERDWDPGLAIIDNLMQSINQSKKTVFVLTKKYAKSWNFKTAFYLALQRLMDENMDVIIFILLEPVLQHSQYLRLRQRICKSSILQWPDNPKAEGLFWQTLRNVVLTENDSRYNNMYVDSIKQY
Format: cell-based
Source text: TLR8 Stimulation determined using HEK-Blue Detection
This assay was designed for studying the stimulation of human TLR 8 protein in HEK-Blue hTLR8 tool cell line by monitoring the activation of NF-κB. HEK-Blue hTLR8 cells were obtained by co-transfection of the hTLR8 gene and an optimized secreted embryonic alkaline phosphatase (SEAP) reporter gene into HEK293 cells. The SEAP reporter gene was placed under the control of the IFN-β minimal promoter fused to five NF-κB and AP-1-binding sites. Stimulation with a TLR 8 ligand activates NF-κB and AP-1 which induce the expression of SEAP. Levels of SEAP can be easily determined with HEK-Blue Detection, a cell culture medium that allows for real-time detection of SEAP. HEK-Blue Detection contains all the nutrients necessary for cell growth and a specific SEAP color substrate. The hydrolysis of the substrate by SEAP produces a purple/blue color that can be measured with a spectrophotometer.
When growing to 50-80% confluency, HEK-Blue hTLR7/8 cells were plated into 96-well plate (costar 3599) at a density of 40000 cells/well. Then compounds were added with serial dilutions over 10 points with a 1 nM-10 uM final concentration range in 0.1% DMSO/HEK-Blue Detection. The plates were then incubated for 16 hr at 37° C. in 5% CO2. The optical density at 620-655 nm was read on BMG PHERAstar FSX instrument. The EC50 for each compound was determined by calculating the percentages of the maximum activation identified with Resiquimod or Motolimod.
Compound `CCC[C@H](C)Nc1nc(N)c2ncc(Cc3cnc(N4CCC(CNC)CC4)c(C)c3)n2n1` (single isomer, unassigned) [Compound B213] has an EC50 greater than 10000 nM.
Compound `CCCC(CCO)Oc1nc(N)c2ncc(Cc3cnc(N4CCNCC4)c(C)c3)n2n1` (stereo not shown) [Compound B165, 3-((4-amino-7-((5-methyl-6-(piperazin-1-yl)pyridin-3-yl)methyl)imidazo[2,1-f][1,2,4]triazin-2-yl)oxy)hexan-1-ol] has an EC50 of 150 nM.
`CCCCOc1nc(N)c2ncc(Cc3ccc(C4CCNCC4)nc3F)n2n1` [Compound B21, 2-butoxy-7-((2-fluoro-6-(piperidin-4-yl)pyridin-3-yl)methyl)imidazo[2,1-f][1,2,4]triazin-4-amine] was tested, and the EC50 was 250 nM.

The compounds below were run against T2, human TLR7 (Homo sapiens, UniProt Q9NYK1) (assay: HEK293-Blue hTLR7 Reporter Assay (QUANTI-BLUE, SEAP readout)). Details: HEK-Blue-hTLR7 cells, 24 hrs treatment, Table 1, B1-B232.
T2 construct: host or cells: HEK293 (HEK-Blue hTLR7)
T2 sequence (Q9NYK1 27-1049): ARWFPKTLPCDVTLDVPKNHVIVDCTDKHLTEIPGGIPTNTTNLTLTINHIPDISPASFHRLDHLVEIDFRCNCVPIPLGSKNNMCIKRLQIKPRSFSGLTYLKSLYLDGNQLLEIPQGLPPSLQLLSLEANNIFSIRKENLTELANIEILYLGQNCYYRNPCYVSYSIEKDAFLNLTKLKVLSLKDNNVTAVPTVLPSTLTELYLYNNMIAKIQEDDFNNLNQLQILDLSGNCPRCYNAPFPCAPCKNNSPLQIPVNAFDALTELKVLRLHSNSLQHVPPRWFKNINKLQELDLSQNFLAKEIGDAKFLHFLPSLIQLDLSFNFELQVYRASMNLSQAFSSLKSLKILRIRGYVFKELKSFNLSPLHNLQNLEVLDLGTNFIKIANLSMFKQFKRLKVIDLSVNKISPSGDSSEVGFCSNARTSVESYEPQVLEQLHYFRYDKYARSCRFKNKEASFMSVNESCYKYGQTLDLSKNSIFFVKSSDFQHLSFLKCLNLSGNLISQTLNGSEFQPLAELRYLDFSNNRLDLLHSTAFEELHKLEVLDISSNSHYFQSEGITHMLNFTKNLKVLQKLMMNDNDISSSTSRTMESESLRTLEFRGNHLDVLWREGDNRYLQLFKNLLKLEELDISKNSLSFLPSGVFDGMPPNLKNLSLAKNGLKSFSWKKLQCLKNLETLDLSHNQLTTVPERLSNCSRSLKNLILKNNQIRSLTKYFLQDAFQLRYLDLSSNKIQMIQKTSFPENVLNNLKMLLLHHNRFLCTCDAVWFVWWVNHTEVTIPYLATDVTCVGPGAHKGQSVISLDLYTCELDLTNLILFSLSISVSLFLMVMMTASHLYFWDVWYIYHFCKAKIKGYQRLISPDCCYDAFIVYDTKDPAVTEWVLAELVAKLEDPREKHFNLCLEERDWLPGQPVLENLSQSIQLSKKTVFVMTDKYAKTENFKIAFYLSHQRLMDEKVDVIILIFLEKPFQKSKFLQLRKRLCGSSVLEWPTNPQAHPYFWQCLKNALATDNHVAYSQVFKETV
Format: cell-based
Procedure, shortened: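 HEK-Blue-hTLR7 cells expressing NF-κB/AP-1-driven SEAP, 4×10^4 cells/well, treated 24 h at 37° C with increasing compound concentrations. Supernatant SEAP measured with Quanti-blue substrate (10-30 min, 37° C) at 620-655 nm; EC50 from sigmoidal dose-response fit.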
For `CCC[C@H](C)Nc1nc(N)c2ncc(Cc3cnc(N4CCC(CNC)CC4)c(C)c3)n2n1` (single isomer, unassigned) [Compound B213], the EC50 was 2.6 nM.
`CCCC(CCO)Oc1nc(N)c2ncc(Cc3cnc(N4CCNCC4)c(C)c3)n2n1` (stereo not shown) [Compound B165, 3-((4-amino-7-((5-methyl-6-(piperazin-1-yl)pyridin-3-yl)methyl)imidazo[2,1-f][1,2,4]triazin-2-yl)oxy)hexan-1-ol] showed an EC50 of 7 nM.
Work on `CCCCOc1nc(N)c2ncc(Cc3ccc(C4CCNCC4)nc3F)n2n1` [Compound B21, 2-butoxy-7-((2-fluoro-6-(piperidin-4-yl)pyridin-3-yl)methyl)imidazo[2,1-f][1,2,4]triazin-4-amine] yielded an EC50 of 115 nM.
Compound `CCCCOc1nc(N)c2ncc(Cc3cnc(N4CCC(N)CC4)c(C)c3)n2n1` [Compound B60, 7-((6-(4-aminopiperidin-1-yl)-5-methylpyridin-3-yl)methyl)-2-butoxyimidazo[2,1-f][1,2,4]triazin-4-amine] has an EC50 of 50 nM.
Compound `CCC[C@@H](CCO)Nc1nc(N)c2ncc(Cc3cnc(N4CCNCC4)c(C)c3)n2n1` [Compound B226, (S)-3-((4-amino-7-((5-methyl-6-(piperazin-1-yl)pyridin-3-yl)methyl)imidazo[2,1-f][1,2,4]triazin-2-yl)amino)hexan-1-ol] has an EC50 of 46 nM.
In the case of `CCCCOc1nc(N)c2ncc(Cc3cnc(N4CCOCC4)c(C)c3)n2n1` [Compound B52, 2-butoxy-7-((5-methyl-6-morpholinopyridin-3-yl)methyl)imidazo[2,1-f][1,2,4]triazin-4-amine], the EC50 is reported as greater than 10000 nM.
`Cc1cc(Cc2cnc3c(N)nc(OCCc4ccccc4)nn23)cnc1N1CCNCC1` [Compound B30, 7-((5-methyl-6-(piperazin-1-yl)pyridin-3-yl)methyl)-2-phenethoxyimidazo[2,1-f][1,2,4]triazin-4-amine] was tested, and the EC50 was greater than 10000 nM.
With `CCCCOc1nc(N)c2ncc(Cc3cnc(N4CCN(CC)CC4)c(C)c3)n2n1` [Compound B114, 2-butoxy-7-((6-(4-ethylpiperazin-1-yl)-5-methylpyridin-3-yl)methyl)imidazo[2,1-f][1,2,4]triazin-4-amine] the EC50 was 168 nM.
`CCCC(CCC)Oc1nc(N)c2ncc(Cc3cnc(N4CCNCC4)c(C)c3)n2n1` [Compound B143, 2-(heptan-4-yloxy)-7-((5-methyl-6-(piperazin-1-yl)pyridin-3-yl)methyl)imidazo[2,1-f][1,2,4]triazin-4-amine] was tested, and the EC50 was 7.8 nM.
With `CC[C@@H](C)Oc1nc(N)c2ncc(Cc3cnc(N4CCNCC4)c(C)c3)n2n1` [Compound B152, (R)-2-(sec-butoxy)-7-((5-methyl-6-(piperazin-1-yl)pyridin-3-yl)methyl)imidazo[2,1-f][1,2,4]triazin-4-amine] the EC50 was 56 nM.
With `CCCCOc1nc(N)c2ncc(Cc3cnc(C4CCNCC4)c(OC)c3)n2n1` [Compound B17, 2-butoxy-7-((5-methoxy-6-(piperidin-4-yl)pyridin-3-yl)methyl)imidazo[2,1-f][1,2,4]triazin-4-amine] the EC50 was 149 nM.
`CCC[C@@H](C)Oc1nc(N)c2ncc(Cc3cnc(N4CCC(CN(C)C)CC4)c(C)c3)n2n1` [Compound B128, (R)-7-((6-(4-((dimethylamino)methyl)piperidin-1-yl)-5-methylpyridin-3-yl)methyl)-2-(pentan-2-yloxy)imidazo[2,1-f][1,2,4]triazin-4-amine] showed an EC50 of 41 nM.
Compound `CCC(CC)Oc1nc(N)c2ncc(Cc3cnc(N4CCN(C(=O)CNC)CC4)c(C)c3)n2n1` [Compound B201, 1-(4-(5-((4-amino-2-(pentan-3-yloxy)imidazo[2,1-f][1,2,4]triazin-7-yl)methyl)-3-methylpyridin-2-yl)piperazin-1-yl)-2-(methylamino)ethan-1-one] has an EC50 of 28 nM.
`CCCCOc1nc(N)c2ncc(Cc3cnc(N4CCC(N5CCN(C)CC5)CC4)c(C)c3)n2n1` [Compound B130, 2-butoxy-7-((5-methyl-6-(4-(4-methylpiperazin-1-yl)piperidin-1-yl)pyridin-3-yl)methyl)imidazo[2,1-f][1,2,4]triazin-4-amine] showed an EC50 of 38 nM.
For `CCCCOc1nc(N)c2ncc(Cc3ccc(N4CCNCC4)nc3)n2n1` [Compound B6, 2-butoxy-7-((6-(piperazin-1-yl)pyridin-3-yl)methyl)imidazo[2,1-f][1,2,4]triazin-4-amine], the EC50 was 421 nM.
`Cc1cc(Cc2cnc3c(N)nc(OCC4CCOCC4)nn23)cnc1N1CCNCC1` [Compound B194, 7-((5-methyl-6-(piperazin-1-yl)pyridin-3-yl)methyl)-2-((tetrahydro-2H-pyran-4-yl)methoxy)imidazo[2,1-f][1,2,4]triazin-4-amine] showed an EC50 of 80 nM.
For `CCC[C@H](CC)Oc1nc(N)c2ncc(Cc3cnc(N4CCN(C(=O)CNC)CC4)c(C)c3)n2n1` [Compound B230, (S)-1-(4-(5-((4-amino-2-(hexan-3-yloxy)imidazo[2,1-f][1,2,4]triazin-7-yl)methyl)-3-methylpyridin-2-yl)piperazin-1-yl)-2-(methylamino)ethan-1-one], the EC50 was 4.8 nM.
In the case of `CCOc1nc(N)c2ncc(Cc3cnc(N4CCNCC4)c(C)c3)n2n1` [Compound B63, 2-ethoxy-7-((5-methyl-6-(piperazin-1-yl)pyridin-3-yl)methyl)imidazo[2,1-f][1,2,4]triazin-4-amine], the EC50 is reported as 900 nM.
`CCC(CC)Nc1nc(N)c2ncc(Cc3cnc(N4CCNCC4)c(C)c3)n2n1` [Compound B210, 7-((5-methyl-6-(piperazin-1-yl)pyridin-3-yl)methyl)-N2-(pentan-3-yl)imidazo[2,1-f][1,2,4]triazine-2,4-diamine] was tested, and the EC50 was 12 nM.
